Tested on: β cells of DKO mice fed a HFD
Assay: MEK162 treatment in vivo of TLR2/TLR4 DKO mice on HFD, histological analysis
Parameters: species or system mouse
Method: For S961 studies, 45-week-old mice under a LFD or HFD were anesthetized and subcutaneously implanted with osmotic pumps (ALZET) filled with insulin receptor antagonist S961 4 or vehicle PBS. Mice were infused with S961 at the dose of 10 nmoles/week for 2 weeks, followed by euthanization and histological analysis of islets. For MEK162 studies, TLR2/TLR4 DKO mice on HFD for 8 weeks were orally gavaged with MEK162 (20 mg/kg body weight, LC laboratories) or vehicle, twice daily for 2 days, followed by euthanization and histological analysis.
For quantification of β cell area, six independent pancreatic tissue sections from 3-4 mice were randomly selected. Total insulin-positive and total pancreas area was measured using the Aperio Imagescope and ImageJ, from which percentage of insulin-positive area was calculated. For quantitation of β cell proliferation, cytoplasmic insulin and nuclear Ki67 double-positive cells were counted as proliferating β cells. Percent of proliferating cells were calculated by dividing the number of Ki67 and insulin-double positive cells by insulin-positive cells of each islet. Islets from 3-4 mice in each group with ˜200-400 β cells in LFD and ˜2,000-7,300 β cells in HFD cohorts were analyzed using the ImageJ software.
Pancreas was fixed in 4% paraformaldehyde, embedded in paraffin, and sectioned by Cornell Histology Core Facility. Ten-micrometer-thick paraffin sections were stained with hematoxylin/eosin. For staining of insulin with immunofluorescence, paraffinembedded sections were rehydrated by sequentially washing in xylene, 100%, 95%, 75% ethanol and water. Then slides were boiled in […] for antigen exposure. After blocking using 5% donkey serum, primary guinea pig anti-rat insulin antibody (Linco, 1:200) were applied and incubated overnight at 4° C., followed with washes and incubation with FITC-conjugated donkey anti-guinea pig IgG (Jackson ImmunoResearch, 1:200). […] Fluorescence Images were captured under a Zeiss LSM710 confocal microscope at Cornell Biotechnology Resource Center Imaging Facility. […]

[1] = DKO mice on HFD for 8 weeks, MEK162 oral 20 mg/kg twice daily for the last 2 days

SMILES: Cn1cnc2c(F)c(Nc3ccc(Br)cc3F)c(C(=O)NOCCO)cc21 [MEK162]
- ERK activation (DKO mice fed a HFD, MEK162 oral 20 mg/kg twice daily for 2 days): blocked
- nuclear entry of Cyclin D2 [1]: abolished
- β cell proliferation (Ki67-positive β cells) [1]: abolished

— patent publication US9957287B2, “Methods and compositions to treat type-1 and type-2 diabetes” (CORNELL UNIVERSITY, priority 2016, dated 2018)
